Reference: US5968791A, “Plant lysophosphatidic acid acyltransferases” (Calgene, Inc., priority 1995, dated 1999)

Key:
Rapeseed LPAAT = assay: LPAAT activity assay, rapeseed P2 membrane preparation; format: biochemical, Brassica napus; conditions: acyl-CoA donor varied, acceptor 12:0-LPA
Method: To assay for LPAAT activity, the sample is incubated with lysophosphatidic acid (LPA) and acyl-coenzyme A (acyl-CoA) substrates in buffered solution. The acyl substituents of the two substrates are chosen to correspond with the specificity of the enzyme being measured. For example, to measure activity of an LPAAT having preference for medium-chain substrates, lauroyl-LPA (lauroyl-lysophosphatidic acid) and lauroyl-CoA may be used, to measure activity of an LPAAT preferring longer-chain acyl groups, oleoyl-LPA and oleoyl-CoA may be used, to measure activity of an LPAAT preferring very-long chain substrate, erucyl-LPA and erucyl-CoA may be used, and so on, depending upon the type of LPAAT to be tested. The acyl group of one substrate is radioactively labeled in order to detect the product formed. In the examples which follow the acyl substituent of the acyl-CoA substrate is radiolabeled with ^14 C in the carboxyl group. LPAAT activity results in transfer of this acyl group from the acyl-CoA "donor" substrate to the LPA "acceptor" substrate, converting the latter into the product, phosphatidic acid (PA). LPAAT activity is measured as the amount of radioactive product formed in a given assay time. The PA product is radioactive as a result of the transferred radiolabeled acyl group at the central carbon atom of the molecule, and the quantity of PA formed may be determined by measuring radioactivity of the PA fraction. For this measurement, the PA is first separated from the acyl-CoA substrate by solvent partitioning, or by thin-layer chromatography (TLC).
20 μl of the sample to be assayed for LPAAT activity is mixed with 217.5 μl of an assay ingredient mixture in a 4-ml, screw-cap vial. […] The incubation takes place in a water bath at 30° C., for 20-30 minutes.
To stop the assay, 0.25 ml of 1M KCl in 0.2M H3 PO4 is added to the vial. At this point, 40 μl BSA (bovine serum albumin, fraction V) at 1 mg/ml are added, followed by 0.75 ml of a solution of 67 μg/ml unlabeled PA (acting as a "carrier" to facilitate partitioning) in chloroform/methanol (2:1, v/v). The chain lengths of the PA acyl groups are chosen to correspond to those used in the assay substrates. Upon thorough mixing of these components the radiolabeled PA product of the LPAAT reaction partitions into the organic phase and away from the unreacted acyl-CoA and LPA. The vial is centrifuged briefly at low speed to facilitate the separation of organic (lower) and aqueous (upper) phases. The aqueous phase is then removed and discarded. The total radioactivity extracted into the organic phase is determined by liquid scintillation counting; a 100 μl sample of the organic phase is transferred to a 20 ml scintillation vial and allowed to dry, and scintillation fluid (3-5 ml) is added to the vial. The radioactivity of the sample, after subtraction of the "minus-enzyme" or "minus-LPA" radioactivities, is taken as an approximate indication of the amount of PA formed in the LPAAT-catalyzed reaction and therefore of LPAAT activity.
A more accurate estimation of the LPAAT activity may be obtained by separating the PA product from these contaminants by TLC. The remaining organic phase is applied to a silica TLC plate. […] After the plate has dried, the distribution of radioactivity is visualized and quantitated using an AMBIS radioanalytic imaging system (AMBIS Systems Inc., San Diego, Calif.). From prior application of standard lipid components the Rf of the PA is known. The radioactivity associated with the PA spot is expressed as a percentage of the total radioactivity of the assay sample loaded on the plate. This ratio provides an indication of the proportion of the scintillation counts which represent the PA product, and may be used to correct the counts to obtain the total PA radioactivity formed in the assay.
A P2 membrane homogenate from immature embryos of developing rapeseed (Brassica napus) seeds is prepared essentially as described above, except as noted below.

control rapeseed LPAAT = assay: LPAAT acyl-CoA specificity, control P2 preparation; format: biochemical; conditions: acyl-CoA donor varied at 5 μM, acceptor 12:0-LPA; 30 minute reaction
Method: Detailed acyl-CoA chain-length specificity analysis of control P2 preparations and LPAAT-transformed line 5511-5 were determined as described above, using the original 30 minute reaction time. The acyl-CoA substrates for this analysis are present in methanol, and thus the assay also had the following modifications. The first solution placed in the assay vial was the volume of each radiolabeled acyl-CoA required for 5 μM final assay concentration. […] After mixing to redissolve the acyl-CoA off the vial wall, the reaction is started by addition of 25 μl of a 5-fold diluted P2 preparation and continued as before. Acyl-CoA substrates used in this analysis were 8:0, 10:0, 12:0, 14:0, 16:0, 18:0, and 18:1. The acceptor substrate in these assays was 12:0-LPA.

SMILES | LPAAT Activity from Rapeseed (Rapeseed LPAAT) | Cpm PA Product, Control (control rapeseed LPAAT)
CCCCCCCC(=O)SCCNC(=O)CCNC(=O)[C@H](O)C(C)(C)COP(=O)(O)OP(=O)(O)OC[C@H]1O[C@@H](n2cnc3c(N)ncnc32)[C@H](O)[C@@H]1OP(=O)(O)O [8:0] | 2 pmol PA formed/30 min assay | 149 Cpm
CCCCCCCCCC(=O)SCCNC(=O)CCNC(=O)[C@H](O)C(C)(C)COP(=O)(O)OP(=O)(O)OC[C@H]1O[C@@H](n2cnc3c(N)ncnc32)[C@H](O)[C@@H]1OP(=O)(O)O [10:0] | 12 pmol PA formed/30 min assay | 831 Cpm
CCCCCCCCCCCC(=O)SCCNC(=O)CCNC(=O)[C@H](O)C(C)(C)COP(=O)(O)OP(=O)(O)OC[C@H]1O[C@@H](n2cnc3c(N)ncnc32)[C@H](O)[C@@H]1OP(=O)(O)O [12:0, lauroyl-CoA] | 79 pmol PA formed/30 min assay | 1758 Cpm
CCCCCCCCCCCCCC(=O)SCCNC(=O)CCNC(=O)[C@H](O)C(C)(C)COP(=O)(O)OP(=O)(O)OC[C@H]1O[C@@H](n2cnc3c(N)ncnc32)[C@H](O)[C@@H]1OP(=O)(O)O [14:0] | 16 pmol PA formed/30 min assay | 1544 Cpm
CCCCCCCCCCCCCCCC(=O)SCCNC(=O)CCNC(=O)[C@H](O)C(C)(C)COP(=O)(O)OP(=O)(O)OC[C@H]1O[C@@H](n2cnc3c(N)ncnc32)[C@H](O)[C@@H]1OP(=O)(O)O [16:0] | 27 pmol PA formed/30 min assay | 3034 Cpm
CCCCCCCC/C=C\CCCCCCCC(=O)SCCNC(=O)CCNC(=O)[C@H](O)C(C)(C)COP(=O)(O)OP(=O)(O)OC[C@H]1O[C@@H](n2cnc3c(N)ncnc32)[C@H](O)[C@@H]1OP(=O)(O)O [18:1, oleoyl-CoA] | 218 pmol PA formed/30 min assay | 7946 Cpm
